According to article PMC3863386 (Journal of the American Chemical Society, 2013):
Where two headings read alike, the source gives them in different places.

Experiments:
LsrR [1] = biological target: T1, LsrR (Escherichia coli, UniProt P76141); conditions: for ΔH / ΔS: ITC titration of LsrR
LsrR [2] = biological target: T1, LsrR; conditions: compared to LsrR alone
C-LsrR Q215A = C-LsrR Q215A (Escherichia coli, UniProt P76141, Q215A); conditions: compared to wild type C-LsrR
C-LsrR T220A = C-LsrR T220A (Escherichia coli, UniProt P76141, T220A); conditions: compared to wild type C-LsrR
C-LsrR D243A = C-LsrR D243A (Escherichia coli, UniProt P76141, D243A); conditions: compared to wild type C-LsrR
C-LsrR K288A = C-LsrR K288A (Escherichia coli, UniProt P76141, K288A); conditions: compared to wild type C-LsrR
LsrR [3] = conditions: cited from earlier work
C-LsrR = C-LsrR (Escherichia coli, UniProt P76141); assay: biochemical; conditions: LsrR-binding affinity (Kd), approximate, rounded summary value
QS signaling in E. coli = conditions: after in vivo phosphorylation by LsrK; cited from earlier work
[4] = tested on: QS signaling in S. typhimurium; conditions: after in vivo phosphorylation by LsrK; cited from earlier work
E. coli biofilms = conditions: simultaneous treatment with the antibiotic gentamicin; cited from earlier work

T1 sequence (P76141 whole entry): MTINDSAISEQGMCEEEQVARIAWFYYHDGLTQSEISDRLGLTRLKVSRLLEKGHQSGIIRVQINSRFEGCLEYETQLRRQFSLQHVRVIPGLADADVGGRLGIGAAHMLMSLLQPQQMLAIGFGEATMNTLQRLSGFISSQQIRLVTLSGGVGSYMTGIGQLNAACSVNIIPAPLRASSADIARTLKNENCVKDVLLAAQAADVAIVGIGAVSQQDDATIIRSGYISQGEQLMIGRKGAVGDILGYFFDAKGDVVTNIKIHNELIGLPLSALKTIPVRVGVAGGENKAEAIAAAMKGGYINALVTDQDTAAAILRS
C-LsrR Q215A, sequence (P76141 53-317 Q215A): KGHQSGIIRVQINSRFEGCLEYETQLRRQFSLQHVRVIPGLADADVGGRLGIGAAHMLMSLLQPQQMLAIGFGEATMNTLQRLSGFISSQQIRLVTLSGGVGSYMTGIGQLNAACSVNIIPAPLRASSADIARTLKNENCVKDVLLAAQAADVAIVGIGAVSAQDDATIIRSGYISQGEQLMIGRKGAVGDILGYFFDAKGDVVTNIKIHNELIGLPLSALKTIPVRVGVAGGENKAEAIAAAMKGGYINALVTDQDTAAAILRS
C-LsrR D243A, sequence (P76141 53-317 D243A): as the sequence (P76141 53-317 Q215A) above, with A163Q, D191A counted along it
C-LsrR T220A, sequence (P76141 53-317 T220A): as the sequence (P76141 53-317 Q215A) above, with A163Q, T168A counted along it
C-LsrR, sequence (P76141 53-317): as the sequence (P76141 53-317 Q215A) above, with A163Q counted along it
C-LsrR K288A, sequence (P76141 53-317 K288A): as the sequence (P76141 53-317 Q215A) above, with A163Q, K236A counted along it

Compound | ΔH (LsrR [1]; 20°C) | ΔS (LsrR [1]; 20°C) | Change of the DLS size distribution of LsrR on addition of ligand (LsrR [2]) | Agonist or antagonist (LsrR [3]) | also measured
CC(=O)C(=O)[C@@H](O)COP(=O)(O)O [D5P, phospho-DPD] | 0.98 kcal/mol | 23.0 cal/mol/K | clearly changed the DLS pattern of LsrR | agonists | Kd (LsrR [1]; read-out: Kd of LsrR (ITC), ITC, 20°C, one-site binding model): 1.78 ± 0.13 µM; Kd (LsrR [1]; read-out: LsrR-binding affinity (Kd), approximate, rounded summary value): ~2 µM; Effect of Q215A mutation on D5P binding affinity (C-LsrR Q215A): moderate; Effect of T220A mutation on D5P binding affinity (C-LsrR T220A): significant decrease of the binding affinity; Effect of D243A mutation on D5P binding affinity (C-LsrR D243A): less affinity for D5P than the wild type; Effect of K288A mutation on D5P binding affinity (C-LsrR K288A): less affinity for D5P than the wild type
CCC(=O)C(=O)[C@@H](O)COP(=O)(O)O [D6P, phospho-ethyl-DPD] | – | – | – | agonists | –
CCCC(=O)C(=O)C(O)COP(=O)(O)O (stereo not shown) [D7P, phospho-propyl-DPD] | – | – | – | antagonist | –
O=C[C@H](O)[C@H](O)[C@H](O)COP(=O)(O)O [R5P, D-ribose 5-phosphate] | – | – | did not show any apparent changes in the size distribution | – | Kd (C-LsrR): ~1000 µM
CC(C)CC(=O)C(=O)[C@@H](O)CO [isobutyl-DPD] | – | – | – | – | Effect on QS signaling (QS signaling in E. coli): attenuated QS signaling; Effect on QS signaling [4]: attenuated QS signaling; Effect on biofilms (E. coli biofilms): dramatically reduced biofilm formation and cleared extant biofilms
phospho-isobutyl DPD [D8P] | 5.3 kcal/mol | 11.2 cal/mol/K | did not show any apparent changes in the size distribution | antagonist | Inhibition of LsrR / QS signal transduction (LsrR [3]): very potent inhibitor
